Here are results for one compound from paper PMC6778934, “^99mTc-Labeled LyP-1 for SPECT Imaging of Triple Negative Breast Cancer” (Contrast Media & Molecular Imaging, 2019).

In this data set the test system is 4T1 cells. In kind it is cell-based, murine. Here is the method: 4T1 murine breast carcinoma cells were purchased from American Type Culture Collection (Manassas, VA, USA) and maintained in RPMI-1640 supplemented with 10% fetal bovine serum (FBS, Gibco, Grand Island, NY, USA). To produce breast cancer models, 4-week-old female BALB/c nude mice were purchased from the Shanghai Laboratory Animal Center at the Chinese Academy of Sciences (Shanghai, China) and subcutaneously injected in the left lateral thigh with 1 × 10^6 tumor cells suspended in 100 μL of PBS. All animal experiments were performed according to protocols established by the Ethics Committee of Shanghai General Hospital. To assess potential cytotoxic effects of LyP-1 or ARAL, cell proliferation assays were conducted with CCK-8 (Dojindo Technologies, Kumamoto, Japan). 4T1 cells (1 × 10^4 per well) were plated on 96-well plates in the RPMI-1640 medium with 10% FBS. After 24 h, the medium was replaced by 100 μL of fresh containing different concentrations of LyP-1 or ARAL (0.1, 1, 5, 10, 20, or 50 μM) for another 24 h. Then, 10 μL CCK-8 was added for 2 h. Absorbance was measured at 450 nm using a Varioskan Flash multimode microplate reader (Thermo Fisher Scientific, Waltham, MA, USA).

Each structure is given as a SMILES string.

With `C[C@@H](O)[C@@H]1NC(=O)[C@H](CCCNC(=N)N)NC(=O)[C@H](CCCCN)NC(=O)[C@H](CC(N)=O)NC(=O)CNC(=O)[C@@H](N)CSSC[C@@H](C(=O)O)NC(=O)CNC(=O)[C@H](CCCNC(=N)N)NC1=O` [LyP-1], the “cell viability compared with that for 0.1–10 μM” value is “slightly but not significantly lower”.
